According to patent US11779555B2, “Combination of immunotherapy with local chemotherapy for the treatment of malignancies” (THE JOHNS HOPKINS UNIVERSITY, priority 2015, dated 2023):

Columns and labels:
CD3+ blood lymphocytes = assay: Circulating CD3+ lymphocytes in peripheral blood (serial blood draws); type: in vivo, C57BL/6J mice; details: Day 30 post implantation, end of regimen, lasting at least 2 weeks
Protocol: Peripheral blood was collected by cardiac puncture before harvesting other tissues at day 21 and 30. A total of 600 μL was collected from each mouse in heparin-coated tubes (BD Biosciences, Franklin Lakes, N.J.). Blood was mixed with PBS in a 1:1 ratio and overlaid onto a Ficoll-Paque Plus (GE Healthcare) base in a 1:3 ratio. After centrifugation, peripheral lymphocytes were extracted from the resulting horizon and were washed twice with PBS. In addition to the blood draws performed on days 21 or 30 post implantation, blood draws were also performed on days 26 and 41 post implantation. On these days, blood was taken via tail vein sampling and 100 μL of blood was collected for every mouse. Red blood cells were lysed using RBC Lysis Buffer (eBioscience) and subsequently stained with CD3 FITC Clone: 17A2 (eBioscience). All flow cytometry experiments were performed on a LSRII (BD Biosciences) and analysis was performed using FlowJo software (TreeStar, Ashland, Oreg.).

[1] = tested on: tumor infiltrating lymphocytes; assay: Flow cytometric analysis of tumor infiltrating lymphocytes (TILs)
Source text: (§1) Flow cytometric analysis of tumor infiltrating immune cells and peripheral lymphoid cell populations: At day 21 or day 30 post tumor implantation, mice were sacrificed using a lethal dose of ketamine/xylazine cocktail. The spleen, brain, cervical lymph nodes (LN), and bone marrow were harvested and passed through a 40-μm strainer. A 30%-37%-60% Percoll gradient (GE Healthcare, Buckinghamshire, UK) was used to isolate immune cell populations from brain tumors and the draining LNs. After centrifugation, the 37%-60% interface contained lymphocytes, monocytes, and microglia in the case of brain tumors, and lymphocytes and monocytes in the case of draining LNs.
(§2) Lymphocytes from all tissues were stimulated with PMA-Ionomycin and Golgi stop (eBioscience) for 4-6 hours in a 37° C. humidified incubator maintained at 5% CO2. […] For the memory T cells, lymphocytes were stained with CD62L PE (BD Biosciences) and CD44 BV421 (BD Biosciences). […] Appropriate isotype controls were used. For the adoptive transfer experiment, CD45.2 PE Clone: 104 (eBioscience) was used to stain the isolated lymphocytes.

[2] = tested on: adoptively transferred ova specific (CD45.2) T cells; assay: Adoptive transfer of OT-I lymphocytes in GL-261 ova tumor bearing mice; type: in vivo; details: four days after adoptive transfer, three days after initiation of chemotherapy
Source text: Adoptive transfer experiments: For the adoptive transfer experiments, 5 week old female B6.SJL-Ptprca Pepcb/BoyJ mice expressing the congenic marker CD45.1 were used as the recipient mice. Inbred C57BL6/J (B6), B6.129S7-Rag1tm1Mom/J (RAG^−/−), B6.SJL-Ptprcb Pepcb/BoyJ (CD45.2) and C57BL/6-Tg(TcraTcrb)1100Mjb/J (OT-I) mice were purchased from The Jackson Laboratory. 6-8 weeks old female RAG−/− OT-I CD45.2 transgenic mice were used as the donor mice.
RAG−/− OT-I CD45.2 mice were lethally anesthetized and their spleens were harvested and passed through a 40-μM nylon mesh. Red blood cell lysis buffer was consecutively applied to remove red blood cells. Cells were counted, checked for their viability, and washed twice with PBS. Two million cells were transferred in 100 uL of PBS for every recipient mouse via retro-orbital injection.
Mice were implanted with 300,000 Gl-261-ova-luc cells at day 0 and RAG−/− OT-I CD45.2 lymphocytes were transferred at day 13: 1 day before starting treatment with chemotherapy. The experimental schedule of the GL-261-ova tumor experiments is explained in detail in FIG. 1.
(§3) Appropriate isotype controls were used.

OT-I T cells = assay: In vivo proliferation of adoptively transferred OT-I T cells in the spleen; design: species or system mice; details: three days after the transfer
Protocol: For in vivo cell proliferation tracing, OT-I RAG−/− splenocytes were labeled with cell proliferation dye eFluor450 (eBioscience, San Diego, Calif.) in the following way: Lymphocytes were isolated from spleen cells, their viability was checked post-isolation, and viable lymphocytes were washed with HBSS without Ca^2+ or Mg^2+ once in preparation for the staining. A 10 μM solution of the cell proliferation dye was made in HBSS without Ca^2+ and Mg^2+. After washing the isolated cells, the cells were reconstituted by adding the 10 μM dye solution to a concentration of 5×10^6 cells/mL. While the solution was added to the cells, the tube was gently vortexed to ensure homogeneous uptake of the dye by all cells.
The cells were incubated for 8 min in the dark at room temperature. Cells were quenched with 20 mls of HBSS with 20% FBS and were then spun at 1400 rpm for 5 min at 4° C. Cells were washed with HBSS without FBS an additional two times and cells were checked for viability. Cells were resuspended with HBSS (w/o FBS) to a concentration of 10×10^6 cells/mL. The cells were passed through a […] cell strainer to ensure they were in a single cell suspension and 100 μL of the cell suspension was injected retro-orbitally in the recipient mice immediately.

[3] = tested on: GL-261 LUC cells in the contralateral hemisphere; assay: Tumor re-challenge of long-term survivors; type: in vivo, mice
Protocol: Re-challenge experiments: Tumor burden was assessed weekly with IVIS imaging. Mice were considered “cured” of their brain tumors following initial treatment if no evidence of tumor was present at consecutive IVIS imaging sessions, and mice were further considered long-term survivors if no tumor was detected 90 days post implantation. […] Cells were prepared in 14 of PBS. Naïve mice were implanted in parallel as controls, and mice were followed with weekly IVIS imaging.

[4] = tested on: intracranial GL-261 LUC gliomas; assay: Survival of mice with intracranial GL-261 gliomas; type: in vivo, C57BL/6J mice; details: Example 3; chemotherapy at day 14, post anti-PD1
Protocol: Tumor model: Female C57BL/6J mice (The Jackson Laboratory, Bar Harbor, Me.), 6 to 8 weeks old, were implanted (Day 0) with GL-261 LUC cells to establish intracranial gliomas, as previously described (Zeng et al., 2013). Briefly, mice were anesthetized with ketamine/xylazine (100 mg/kg ketamine, 10 mg/kg xylazine) and a small midline incision was made to expose the skull. A burr hole was then drilled directly over the striatum and 130,000 GL-261 LUC cells were implanted at a depth of 3 mm from the cortical surface. The tumor take rate was 100%. Day 7 post implantation, mice were imaged to assess the progress of tumor growth using an IVIS platform (In Vivo Imaging System, Caliper Life Sciences, Hopkinton, Mass.). Mice were then stratified into experimental treatment groups based on luminescence. Each treatment group had 5 to 15 mice in the survival experiments. […]
Surgical procedure: polymer implantation: Mice in the LC or EP treatment groups were anesthetized with ketamine/xylazine (100 mg/kg ketamine, 10 mg/kg xylazine). […] Mice were monitored for a period of 30 min after recovery for signs of neurological deficits. […]
Statistics: Survival was plotted using Kaplan-Meier curves, and curves were analyzed with the log-rank Mantel-Cox test using GraphPad Prism software (GraphPad Software, La Jolla, Calif.). […]

bone marrow cells = assay: Bone marrow cellularity and CD45+ leukocytes; type: in vivo, C57BL/6J mice
Source text: as §3

[5] = tested on: lymphocytes of draining lymph nodes, spleen and blood; assay: Flow cytometric analysis of draining lymph nodes and peripheral lymphoid organs
Source text: as §1, with “Flow cytometric analysis of tumor infiltrating immune cells and peripheral lymphoid cell populations: At day 21 or day 30 post tumor implantation, mice were sacrificed using a lethal dose of ketamine/xylazine cocktail.” left out
as §2

effector memory T cells = assay: IFNγ production of memory T cells after re-challenge; type: in vivo, mice; details: twenty days after re-challenge, PMA/Ionomycin stimulation
Protocol: as §3
Re-challenge experiments: Tumor burden was assessed weekly with IVIS imaging. Mice were considered “cured” of their brain tumors following initial treatment if no evidence of tumor was present at consecutive IVIS imaging sessions, and mice were further considered long-term survivors if no tumor was detected 90 days post implantation. Long-term survivors from each experimental group were re-challenged 90 days post implantation with 300,000 GL-261 LUC cells injected intracranially in the contralateral hemisphere. Cells were prepared in […]. Naïve mice were implanted in parallel as controls, and mice were followed with weekly IVIS imaging.

## O=NN(CCCl)C(=O)NCCCl [i.p. BCNU, BCNU]
CD3+ blood lymphocytes
  CD3+ lymphocytes in peripheral blood: severely lymphodepleted
[1]; day 21
  percent of CD4+FoxP3+ regulatory cells (Tregs) in TILs: 55%
  percentage of recovered CD8+ TILs producing IFNγ: 35%
[1]; day 30 post implantation
  density of CD3+ TILs (number of cells normalized by tumor volume): 40 cells
[2]
  CD3+CD45.2+ cells within the tumor microenvironment: 4%
  CD3+CD45.2+ transferred cells in the DLNs: 3%
OT-I T cells
  OT-I cells divided (dilution of cell proliferation dye): 29.9%
[3]; experimental day 104
  size of the spleen at necropsy vs LC and anti-PD1 treated mice: significantly decreased
[3]; long term survivors
  tumor growth after re-challenge in the contralateral hemisphere: not able to inhibit tumor growth
[4]
  median survival: 45 days
Bone marrow cells; Example 2
  myelotoxicity (BM cellularity and CD45 leukocytes vs control): late myelotoxicity
Bone marrow cells; Example 3
  CD45+ bone marrow cells (leukocytes) vs control, LC or LC+anti-PD1: decreased cell numbers
  bone marrow cellularity (live-dead staining): significant decrease in cellularity
[5]; Example 3
  CD3+ cells and CD8+ IFN-γ+ cells in draining lymph nodes: lymphodepletion of both CD3+ cells and CD8+ IFN-γ+ cells
[5]; cured mice, 4 months from tumor implantation
  lymphocytes recovered from spleen, LN and blood vs untreated or LC treated mice: decreased number of recovered lymphocytes
Effector memory T cells
  IFNγ production of CD8+CD44[high]CD62L[low] cells from DLNs, spleen or peripheral blood: dysfunctional IFNγ production
